Columns and labels:
Test in all cases: KINOMEscan competition binding
Details in all cases: compound 10.0 µM
MAP2K3 (human) = MAP2K3 (human) (UniProt P46734)
SYK (human) = SYK (human) (UniProt P43405)
CLK2 (human) = CLK2 (human) (UniProt P49760)
YES1 (human) = YES1 (human) (UniProt P07947)
MAP3K3 (human) = MAP3K3 (human) (UniProt Q99759)
CAMKK2 (human) = CAMKK2 (human) (UniProt Q96RR4)
SIK1 (human) = SIK1 (human) (UniProt P57059)
PRKX (human) = PRKX (human) (UniProt P51817)
CDK3 (human) = CDK3 (human) (UniProt Q00526)
CDK3 (human), sequence (Q00526 whole entry, looked up): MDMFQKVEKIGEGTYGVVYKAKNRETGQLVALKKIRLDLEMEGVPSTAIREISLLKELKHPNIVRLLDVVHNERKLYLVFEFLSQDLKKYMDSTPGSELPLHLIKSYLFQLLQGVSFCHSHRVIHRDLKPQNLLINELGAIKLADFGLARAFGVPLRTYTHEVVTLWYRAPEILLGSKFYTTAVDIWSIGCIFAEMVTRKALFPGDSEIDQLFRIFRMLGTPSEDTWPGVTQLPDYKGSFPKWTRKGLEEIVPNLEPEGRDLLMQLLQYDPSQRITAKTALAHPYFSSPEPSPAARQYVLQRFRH

MAPK11 (human) = MAPK11 (human) (UniProt Q15759)
GSK3A (human) = GSK3A (human) (UniProt P49840)
RPS6KA5 KD1 (human) = RPS6KA5 KD1 (human) (UniProt O75582)
LTK (human) = LTK (human) (UniProt P29376)
ROCK2 (human) = ROCK2 (human) (UniProt O75116)
EPHA2 (human) = EPHA2 (human) (UniProt P29317)
EPHA2 (human), sequence (P29317 whole entry, looked up): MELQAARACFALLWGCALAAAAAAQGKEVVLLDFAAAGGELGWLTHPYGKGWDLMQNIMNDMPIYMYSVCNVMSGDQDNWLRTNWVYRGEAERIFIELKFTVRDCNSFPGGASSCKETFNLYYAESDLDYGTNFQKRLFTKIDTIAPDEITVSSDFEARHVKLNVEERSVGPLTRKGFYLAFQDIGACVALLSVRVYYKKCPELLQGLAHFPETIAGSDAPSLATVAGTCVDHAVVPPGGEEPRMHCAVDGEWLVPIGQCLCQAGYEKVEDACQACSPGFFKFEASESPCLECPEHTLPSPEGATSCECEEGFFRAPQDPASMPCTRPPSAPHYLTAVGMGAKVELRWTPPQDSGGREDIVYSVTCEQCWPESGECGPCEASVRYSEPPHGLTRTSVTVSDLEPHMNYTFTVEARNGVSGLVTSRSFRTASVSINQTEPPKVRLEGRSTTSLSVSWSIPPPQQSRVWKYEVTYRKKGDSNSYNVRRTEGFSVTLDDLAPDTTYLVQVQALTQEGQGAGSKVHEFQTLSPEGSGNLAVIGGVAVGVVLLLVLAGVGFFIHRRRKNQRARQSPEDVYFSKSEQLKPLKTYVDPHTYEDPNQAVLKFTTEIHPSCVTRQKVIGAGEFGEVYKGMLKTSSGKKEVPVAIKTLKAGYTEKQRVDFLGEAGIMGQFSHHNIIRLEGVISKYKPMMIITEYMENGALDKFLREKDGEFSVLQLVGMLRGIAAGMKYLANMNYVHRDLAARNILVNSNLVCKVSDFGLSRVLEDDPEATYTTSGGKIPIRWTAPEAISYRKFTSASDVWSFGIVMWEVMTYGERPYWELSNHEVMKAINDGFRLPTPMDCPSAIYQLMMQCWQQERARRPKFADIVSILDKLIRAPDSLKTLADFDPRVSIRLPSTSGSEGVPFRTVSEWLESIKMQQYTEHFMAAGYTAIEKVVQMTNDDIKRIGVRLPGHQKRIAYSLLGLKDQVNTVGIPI

STK36 (human) = STK36 (human) (UniProt Q9NRP7)
CDK19 (human) = CDK19 (human) (UniProt Q9BWU1)
ACVR1B (human) = ACVR1B (human) (UniProt P36896)
SRPK2 (human) = SRPK2 (human) (UniProt P78362)
NEK5 (human) = NEK5 (human) (UniProt Q6P3R8)
MARK2 (human) = MARK2 (human) (UniProt Q7KZI7)
MARK2 (human), sequence (Q7KZI7 whole entry, looked up): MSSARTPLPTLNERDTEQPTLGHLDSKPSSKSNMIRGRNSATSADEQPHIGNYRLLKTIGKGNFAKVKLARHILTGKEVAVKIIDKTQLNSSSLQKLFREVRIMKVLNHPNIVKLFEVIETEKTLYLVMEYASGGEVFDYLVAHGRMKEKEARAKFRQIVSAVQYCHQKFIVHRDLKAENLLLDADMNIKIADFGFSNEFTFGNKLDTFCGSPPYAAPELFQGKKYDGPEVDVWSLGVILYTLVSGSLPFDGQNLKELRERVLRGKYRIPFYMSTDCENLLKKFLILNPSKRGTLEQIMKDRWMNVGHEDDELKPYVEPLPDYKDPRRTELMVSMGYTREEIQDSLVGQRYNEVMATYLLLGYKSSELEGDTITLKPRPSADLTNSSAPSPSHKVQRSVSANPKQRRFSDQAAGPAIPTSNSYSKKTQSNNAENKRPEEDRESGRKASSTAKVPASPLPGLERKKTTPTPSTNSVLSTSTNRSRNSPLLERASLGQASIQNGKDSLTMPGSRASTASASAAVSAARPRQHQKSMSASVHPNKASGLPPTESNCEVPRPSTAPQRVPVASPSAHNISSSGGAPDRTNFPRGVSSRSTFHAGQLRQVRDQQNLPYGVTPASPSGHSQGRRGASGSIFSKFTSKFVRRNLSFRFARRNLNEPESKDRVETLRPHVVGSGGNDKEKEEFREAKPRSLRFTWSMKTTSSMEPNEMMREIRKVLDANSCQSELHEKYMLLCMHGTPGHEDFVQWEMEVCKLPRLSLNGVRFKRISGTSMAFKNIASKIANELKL

ALK (human) = ALK (human) (UniProt Q9UM73)
[1] = molecular target: TYK2 JH2 pseudokinase (human) (UniProt P29597)
FYN (human) = FYN (human) (UniProt P06241)
FYN (human), sequence (P06241 whole entry, looked up): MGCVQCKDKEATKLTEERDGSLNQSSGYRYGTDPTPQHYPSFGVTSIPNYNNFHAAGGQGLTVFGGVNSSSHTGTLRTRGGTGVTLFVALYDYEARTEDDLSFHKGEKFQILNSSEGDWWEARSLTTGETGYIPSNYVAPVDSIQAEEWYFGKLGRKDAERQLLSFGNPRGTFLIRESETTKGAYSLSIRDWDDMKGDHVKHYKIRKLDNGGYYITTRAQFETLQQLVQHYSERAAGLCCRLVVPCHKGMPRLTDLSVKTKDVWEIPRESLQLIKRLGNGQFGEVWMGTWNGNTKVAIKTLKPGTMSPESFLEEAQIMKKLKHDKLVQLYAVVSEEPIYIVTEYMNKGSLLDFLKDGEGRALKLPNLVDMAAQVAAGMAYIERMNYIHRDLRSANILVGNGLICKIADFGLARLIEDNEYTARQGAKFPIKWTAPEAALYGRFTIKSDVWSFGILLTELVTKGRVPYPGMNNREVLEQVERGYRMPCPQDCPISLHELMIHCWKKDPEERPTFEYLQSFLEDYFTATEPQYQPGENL

TESK1 (human) = TESK1 (human) (UniProt Q15569)
STK17B (human) = STK17B (human) (UniProt O94768)
STK17B (human), sequence (O94768 whole entry, looked up): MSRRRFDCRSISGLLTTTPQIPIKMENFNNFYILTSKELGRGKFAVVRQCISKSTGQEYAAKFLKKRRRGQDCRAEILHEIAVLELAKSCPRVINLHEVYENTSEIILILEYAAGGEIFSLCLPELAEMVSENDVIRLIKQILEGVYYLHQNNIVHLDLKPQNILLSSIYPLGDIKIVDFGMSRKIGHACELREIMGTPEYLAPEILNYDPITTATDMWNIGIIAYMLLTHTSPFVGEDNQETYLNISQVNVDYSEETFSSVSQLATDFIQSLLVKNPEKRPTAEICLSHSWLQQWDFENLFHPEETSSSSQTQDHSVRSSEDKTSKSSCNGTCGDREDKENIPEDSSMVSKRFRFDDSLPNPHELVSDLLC

MAPK3 (human) = MAPK3 (human) (UniProt P27361)
CHUK (human) = CHUK (human) (UniProt O15111)
MAP3K5 (human) = MAP3K5 (human) (UniProt Q99683)
SGK110 (human) = SGK110 (human) (UniProt P0C264)
SGK110 (human), sequence (P0C264 whole entry, looked up): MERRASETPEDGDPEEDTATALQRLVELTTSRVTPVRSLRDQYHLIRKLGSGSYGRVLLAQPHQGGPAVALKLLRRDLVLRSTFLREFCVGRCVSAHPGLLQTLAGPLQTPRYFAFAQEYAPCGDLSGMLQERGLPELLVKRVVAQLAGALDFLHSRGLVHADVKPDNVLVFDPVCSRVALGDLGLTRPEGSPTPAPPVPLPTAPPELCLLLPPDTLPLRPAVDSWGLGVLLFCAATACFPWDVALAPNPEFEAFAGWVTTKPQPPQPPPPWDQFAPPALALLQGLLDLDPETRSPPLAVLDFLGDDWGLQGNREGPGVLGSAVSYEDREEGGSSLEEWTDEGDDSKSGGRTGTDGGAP

KDR (human) = KDR (human) (UniProt P35968)
PAK2 (human) = PAK2 (human) (UniProt Q13177)
ACVR2B (human) = ACVR2B (human) (UniProt Q13705)
CHEK2 (human) = CHEK2 (human) (UniProt O96017)
MAP2K1 (human) = MAP2K1 (human) (UniProt Q02750)
IKBKE (human) = IKBKE (human) (UniProt Q14164)
PRKD2 (human) = PRKD2 (human) (UniProt Q9BZL6)
EPHA4 (human) = EPHA4 (human) (UniProt P54764)
PIP5K1A (human) = PIP5K1A (human) (UniProt Q99755)
MAPK9 (human) = MAPK9 (human) (UniProt P45984)

YES1 (human), sequence (P07947 whole entry, looked up): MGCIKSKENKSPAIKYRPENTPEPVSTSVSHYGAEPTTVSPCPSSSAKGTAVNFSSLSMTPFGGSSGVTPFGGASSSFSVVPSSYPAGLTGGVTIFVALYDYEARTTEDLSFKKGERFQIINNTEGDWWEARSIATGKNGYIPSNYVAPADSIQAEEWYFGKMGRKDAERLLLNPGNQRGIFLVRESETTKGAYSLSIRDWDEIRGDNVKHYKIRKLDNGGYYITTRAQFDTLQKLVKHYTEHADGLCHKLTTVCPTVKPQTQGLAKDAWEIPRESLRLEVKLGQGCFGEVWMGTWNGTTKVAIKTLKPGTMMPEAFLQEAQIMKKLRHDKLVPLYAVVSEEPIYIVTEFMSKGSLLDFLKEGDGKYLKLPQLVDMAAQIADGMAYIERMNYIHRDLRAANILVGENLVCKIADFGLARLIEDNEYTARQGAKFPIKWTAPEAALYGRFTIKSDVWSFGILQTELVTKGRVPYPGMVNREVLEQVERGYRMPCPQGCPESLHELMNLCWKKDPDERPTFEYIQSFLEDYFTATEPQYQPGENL
MAP2K3 (human), sequence (P46734 whole entry, looked up): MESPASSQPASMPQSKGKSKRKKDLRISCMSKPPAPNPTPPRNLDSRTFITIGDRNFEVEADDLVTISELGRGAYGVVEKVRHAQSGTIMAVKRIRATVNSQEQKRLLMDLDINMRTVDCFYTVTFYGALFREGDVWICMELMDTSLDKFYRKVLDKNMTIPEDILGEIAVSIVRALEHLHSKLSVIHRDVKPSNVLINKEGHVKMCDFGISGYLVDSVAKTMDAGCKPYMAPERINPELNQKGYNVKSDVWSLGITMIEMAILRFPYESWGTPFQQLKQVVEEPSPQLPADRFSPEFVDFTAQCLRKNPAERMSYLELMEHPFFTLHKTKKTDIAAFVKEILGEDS
SIK1 (human), sequence (P57059 whole entry, looked up): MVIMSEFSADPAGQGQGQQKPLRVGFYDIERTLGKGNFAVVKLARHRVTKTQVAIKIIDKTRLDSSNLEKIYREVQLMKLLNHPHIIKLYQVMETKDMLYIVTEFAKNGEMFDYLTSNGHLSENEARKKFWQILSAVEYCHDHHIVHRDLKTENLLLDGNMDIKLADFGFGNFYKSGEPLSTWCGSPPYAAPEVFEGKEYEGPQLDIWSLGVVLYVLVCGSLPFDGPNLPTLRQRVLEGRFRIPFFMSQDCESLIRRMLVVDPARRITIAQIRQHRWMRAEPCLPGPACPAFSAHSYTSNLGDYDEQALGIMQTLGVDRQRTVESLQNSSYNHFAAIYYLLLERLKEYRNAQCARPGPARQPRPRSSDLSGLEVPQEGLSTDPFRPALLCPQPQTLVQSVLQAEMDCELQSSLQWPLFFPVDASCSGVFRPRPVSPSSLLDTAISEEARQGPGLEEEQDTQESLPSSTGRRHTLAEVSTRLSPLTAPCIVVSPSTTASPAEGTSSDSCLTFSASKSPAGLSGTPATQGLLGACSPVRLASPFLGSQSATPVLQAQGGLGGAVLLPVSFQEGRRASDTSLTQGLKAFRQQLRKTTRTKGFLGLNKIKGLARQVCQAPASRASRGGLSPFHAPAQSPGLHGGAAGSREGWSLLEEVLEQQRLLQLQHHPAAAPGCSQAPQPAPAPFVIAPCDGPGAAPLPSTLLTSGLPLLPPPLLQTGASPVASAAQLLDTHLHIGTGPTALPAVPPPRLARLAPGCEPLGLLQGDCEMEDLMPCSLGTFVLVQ

SMILES | kinase still bound, per cent of control (MAP2K3 (human)) [%] | kinase still bound, per cent of control (SYK (human)) [%] | kinase still bound, per cent of control (CLK2 (human)) [%] | kinase still bound, per cent of control (YES1 (human)) [%] | kinase still bound, per cent of control (MAP3K3 (human)) [%] | kinase still bound, per cent of control (CAMKK2 (human)) [%] | kinase still bound, per cent of control (SIK1 (human)) [%] | kinase still bound, per cent of control (PRKX (human)) [%] | kinase still bound, per cent of control (CDK3 (human)) [%] | kinase still bound, per cent of control (MAPK11 (human)) [%] | kinase still bound, per cent of control (GSK3A (human)) [%] | kinase still bound, per cent of control (RPS6KA5 KD1 (human)) [%] | kinase still bound, per cent of control (LTK (human)) [%] | kinase still bound, per cent of control (ROCK2 (human)) [%] | kinase still bound, per cent of control (EPHA2 (human)) [%] | kinase still bound, per cent of control (STK36 (human)) [%] | kinase still bound, per cent of control (CDK19 (human)) [%] | kinase still bound, per cent of control (ACVR1B (human)) [%] | kinase still bound, per cent of control (SRPK2 (human)) [%] | kinase still bound, per cent of control (NEK5 (human)) [%] | further results
CCOc1cc2ncc(C#N)c(Nc3ccc(OCc4ccccn4)c(Cl)c3)c2cc1NC(=O)/C=C/CN(C)C | 100 | 65 | 100 | 26 | 3.8 | 89 | 31 | 100 | 100 | 100 | 97 | 100 | 100 | 86 | 94 | 69 | 100 | 100 | 85 | 100 | kinase still bound, per cent of control (MARK2 (human)): 86%; kinase still bound, per cent of control (ALK (human)): 100%; kinase still bound, per cent of control [1]: 99%; kinase still bound, per cent of control (FYN (human)): 84%; kinase still bound, per cent of control (TESK1 (human)): 100%; kinase still bound, per cent of control (STK17B (human)): 46%; kinase still bound, per cent of control (MAPK3 (human)): 100%; kinase still bound, per cent of control (CHUK (human)): 81%; kinase still bound, per cent of control (MAP3K5 (human)): 100%; kinase still bound, per cent of control (SGK110 (human)): 100%; kinase still bound, per cent of control (KDR (human)): 94%; kinase still bound, per cent of control (PAK2 (human)): 34%; kinase still bound, per cent of control (ACVR2B (human)): 100%; kinase still bound, per cent of control (CHEK2 (human)): 79%; kinase still bound, per cent of control (MAP2K1 (human)): 0.4%; kinase still bound, per cent of control (IKBKE (human)): 100%; kinase still bound, per cent of control (PRKD2 (human)): 50%; kinase still bound, per cent of control (EPHA4 (human)): 96%; kinase still bound, per cent of control (PIP5K1A (human)): 100%; kinase still bound, per cent of control (MAPK9 (human)): 52%
OCCCNc1cc(-c2ccnc(Nc3cccc(Cl)c3)n2)ccn1 | 100 | 100 | 0.3 | 100 | 100 | 100 | 100 | 100 | 100 | 100 | 20 | 100 | 100 | 100 | 100 | 100 | 100 | 100 | 100 | 100 | kinase still bound, per cent of control (MARK2 (human)): 100%; kinase still bound, per cent of control (ALK (human)): 100%; kinase still bound, per cent of control [1]: 100%; kinase still bound, per cent of control (FYN (human)): 100%; kinase still bound, per cent of control (TESK1 (human)): 100%; kinase still bound, per cent of control (STK17B (human)): 100%; kinase still bound, per cent of control (MAPK3 (human)): 100%; kinase still bound, per cent of control (CHUK (human)): 100%; kinase still bound, per cent of control (MAP3K5 (human)): 100%; kinase still bound, per cent of control (SGK110 (human)): 100%; kinase still bound, per cent of control (KDR (human)): 100%; kinase still bound, per cent of control (PAK2 (human)): 100%; kinase still bound, per cent of control (ACVR2B (human)): 100%; kinase still bound, per cent of control (CHEK2 (human)): 100%; kinase still bound, per cent of control (MAP2K1 (human)): 100%; kinase still bound, per cent of control (IKBKE (human)): 100%; kinase still bound, per cent of control (PRKD2 (human)): 100%; kinase still bound, per cent of control (EPHA4 (human)): 100%; kinase still bound, per cent of control (PIP5K1A (human)): 100%; kinase still bound, per cent of control (MAPK9 (human)): 100%

Reference: the kinase profiling compilation of Christmann-Franck et al. (2016)
